Results: patent publication US7473433B2, “Pulmonary delivery of polyene antifungal agents” (priority 2000, dated 2009)
Values after ≈ are worked out from the molar mass of the structure shown. Like-named read-outs stand apart in the source and are kept apart here. Blank lines part the entries; values can stand above or below the compound they belong to.

Tests used:
[1] = format: physicochemical; details: for % AmB pH 3: MeOH pH 3, ice bath; for % AmB pH 4: MeOH pH 4, ice bath
From the text: The “extent of degradation” of a polyene is the percentage of polyene contained in the dry powder composition determined to be chemically modified from the intact starting material, as determined by a suitable chemical assay (e.g., NMR, HPLC, etc.); 100% of the polyene remaining chemically intact during the spray drying process represents an extent of degradation of 0%.
• Amphotericin B (Spectrum, New Brunswick, N.J.; Alapharma) • Nystatin (Spectrum, New Brunswick, N.J.) • Methanol dehydrated, HPLC grade (EM Industries, Gibbstown, N.J.) • Sodium Hydroxide, 50% (J. T. Baker, Phillipsburg, N.J.) • L-Leucine (Aldrich) • Hydrochloric Acid (J. T. Baker, Phillipsburg, N.J.) • Sodium Deoxycholate (Spectrum, New Brunswick, N.J.) Methods • Reverse Phase-HPLC • RP-HPLC analysis was performed on a Waters 2690HPLC system with a Waters Detector 996 (Skywalker, Inhale No.101232). The system was equipped with either a Vydac C-18 column or an YMC ODC-AQ™ C-18 column. Samples were eluted with a gradient mobile phases consisted of 10 mM sodium acetate buffer (mobile phase A) at pH 5 and CAN (mobile phase B). The flow rate was maintained at 1.0 ml/min, the detector wavelength was 383 nm, and the injection volume was 30μL (microliter). Stability Samples
(§1) In an attempt to reduce the extent of chemical degradation of amphotericin, while also finding solution conditions under which amphotericin B was reasonably soluble (e.g., to an extent greater than about 1 mg/mL), solubility experiments were conducted. The experiments were performed at room temperature for the first 2 hour while adjusting for solution pH. After the amphotericin B was completely dissolved, the samples were transferred to a 4° C. refrigerator for further chemical stability analysis. Table 7 summarizes the formulation details and apparent solubilities at specific pH conditions.
Solutions were prepared as follows. Amphotericin B (AmB) was added to MeOH (3 mg AmB/mL) at either room temperature or in an ice bath. […] The chemical stability of AmB was determined by an HPLC assay as a function of time over 24 hours.

[2] = Apparent solubility of AmB in pH-adjusted methanol; format: physicochemical; details: for Solubility: 0 °C, MeOH
Method: as §1
Additional solubility of amphotericin B and stability of the representative formulation, R0140, was investigated. The solubility of amphotericin at pH 5 and at pH 4.7 was investigated; additionally, the chemical stability of amphotericin B at pH 4.8 was further examined. In these experiments, samples were placed in an ice bath during the formulation preparation.

[3] = cited from earlier work
[4] = Solubility of polyenes and excipients in single solvents; format: physicochemical
Method: The solubility of amphotericin and excipients/additives of interest was determined in various solvents in an attempt to find a solvent system suitable for spray drying (i.e., having a sufficiently high vapor pressure) and capable of dissolving both amphotericin and any added excipients at an extent greater than about 10 mg/mL solvent. Although active agents can be spray-dried as suspensions, having the formulation components dissolved in solution provides resulting particles having a homogeneous composition (i.e., when comparing one particle to another particle)—that is to say, each particle in the composition has approximately the same composition and distribution of formulation components.
Amphotericin B is soluble in water at pHs lower than 3 and higher than 10, but only to a limited extent (0.2 mg/ml) —making the volume of solvent required for spray drying under these conditions too large to be reasonably handled. Thus, the following solubilities were experimentally determined to find a single (non-mixed) solvent system for spray drying representative amphotericin B and nystatin formulations.

% AmB pH 3 ([1]; 4 hr): 93%
% AmB pH 3 ([1]; 18.5 hr): 90%
% AmB pH 3 ([1]; 26 hr): 85%
% AmB pH 3 ([1]; […]): 95%
% AmB pH 4 ([1]; 1 hr): 94%
% AmB pH 4 ([1]; 4 hr): 96%
% AmB pH 4 ([1]; 18.5 hr): 97%
% AmB pH 4 ([1]; 26 hr): 93%
% AmB ([1]; MeOH pH 4.8, in ice bath, 4 hr): 99%
% AmB ([1]; MeOH pH 4.8, in ice bath, 6 hr): 97%
% AmB ([1]; MeOH pH 4.8, in ice bath, 8 hr): 94%
% AmB ([1]; MeOH pH 4.8, in ice bath, 24 hr): 97%
% AmB ([1]; MeOH pH 4.8, in ice bath, […]): 97%
% AmB ([1]; MeOH pH 4.8, room temperature, 4 hr): 85%
% AmB ([1]; MeOH pH 4.8, room temperature, 6 hr): 83%
% AmB ([1]; MeOH pH 4.8, room temperature, 8 hr): 84%
% AmB ([1]; MeOH pH 4.8, room temperature, 24 hr): 78%
% AmB ([1]; MeOH pH 4.8, room temperature, […]): 89%
AmB (%) ([1]; MeOH solution, T = 8 hr (4° C. after first 2 hr)): about 92%
Main Peak % ([1]; MeOH, pH 4.8, in ice): 92.0%
AmB (%) ([1]; MeOH, pH 4.8, in ice, during formulation preparation): 97%
Solubility ([2]; pH 4.7, organic solvent or mixture, pH 4.7, in ice): 3400 µg/mL (≈ 3.68 mM)
Solubility ([2]; pH 5, organic solvent or mixture, pH 5.0, in ice): ~3000 µg/mL (≈ 3.25 mM)
solubility at 2 h ([2]; organic solvent or mixture, in MeOH, room temperature, pH of the formulation 4.4, 6.9 or 9.6): 2900 µg/mL (≈ 3.14 mM)
SMILES: C[C@@H]1[C@H](O)[C@@H](C)/C=C/C=C/C=C/C=C/C=C/C=C/C=C/[C@H](O[C@@H]2O[C@H](C)[C@@H](O)[C@H](N)[C@@H]2O)C[C@@H]2O[C@](O)(C[C@@H](O)C[C@@H](O)[C@H](O)CC[C@@H](O)C[C@@H](O)CC(=O)O[C@H]1C)C[C@H](O)[C@H]2C(=O)O [Amphotericin B]
Solubility in water ([3]; water at pH 6 to 7): insoluble
Solubility in water ([3]; water at pHs lower than 3 and higher than 10): 200 µg/mL (≈ 0.216 mM)

SMILES: C[C@@H]1[C@H](O)[C@@H](C)/C=C/C=C/CC/C=C/C=C/C=C/C=C/C(O[C@H]2O[C@H](C)[C@@H](O)[C@H](N)[C@@H]2O)CC2O[C@](O)(CC(O)C(O)CCC(O)CC(O)CC(O)CC(=O)O[C@H]1C)CC(O)C2C(=O)O (stereo partly drawn) [Nystatin]
Solubility ([4]; Acetone): 0.1 mg compound/g solvent
Solubility ([4]; Chloroform): 0.7 mg compound/g solvent
Solubility ([4]; DI Water): 1.1 mg compound/g solvent
Solubility ([4]; Ethanol): 0.8 mg compound/g solvent
Solubility ([4]; Ethyl Ether): 0.1 mg compound/g solvent
Solubility ([4]; Hexane): 0.0 mg compound/g solvent
Solubility ([4]; IP Acetate): 0.1 mg compound/g solvent
Solubility ([4]; IPA): 0.1 mg compound/g solvent
Solubility ([4]; Isobutyl Alcohol): 0.5 mg compound/g solvent
Solubility ([4]; Meth. Chloride): 3.9 mg compound/g solvent
Solubility ([4]; Methanol): 11.0 mg compound/g solvent
Solubility ([4]; Pet. Ether): 0.0 mg compound/g solvent
Solubility ([4]; THF): 1.6 mg compound/g solvent
